Measured values published in patent US20240300932A1, “N-PHENYLIMINE DERIVATIVE AND PREPARATION METHOD AND USE THEREOF” (Guizhou University, priority 2023, published 2024).

Tests used:
Assay in all cases: Post-emergence herbicidal activity test (stem and leaf spray, pot culture)
Assay type in all cases: in vivo
Conditions in all cases: 3 weeks after spraying
Abutilon theophrasti = test system: Abutilon theophrasti
Experimental: (§1) The weeds were cultivated in a 180 mm×140 mm plastic nutrient pot by a pot-culture method, placed in an enamel tray, and the plastic nutrient pots were filled with surface soil (⅘ of a depth) collected from a farmland and air-dried and sieved, and a soil humidity was controlled at 20% in the initial stage. Weed seeds with plump and uniform grains were selected, soaked in warm water at 25° C. for 6 h, and germinated in a biochemical incubator (dark) at 28° C. The freshly exposed weed seeds were evenly placed on the soil surface, and then covered with 0.5 cm to 1 cm of soil according to the size of the seeds. The weeds are cultivated in a controlled sunlight greenhouse at 20° C. to 30° C., under natural light, and a relative humidity of 57% to 72%. The soil was loam, including 1.63% of organic matters, with a pH value of 7, 84.3 mg/kg of alkaline nitrogen, 38.5 mg/kg of available phosphorus, and 82.1 mg/kg of available potassium.
(§2) Each treatment was repeated 2 times, each treatment included 12 pots, and 20 weed seeds were sown in each pot. Pesticide was applied in the test for 1 time in total. When the weeds grew to 1.5- to 2-leaf stage, thinning was conducted, with 10 weeds in each pot, and 30 weeds were kept in each treatment.
(§3) The cultivated weeds were placed on trays with an area of 0.1 m^2, and stems and leaves were sprayed with a sprayer. After applying a pesticide, the pesticide applied weeds were moved into a greenhouse for routine cultivation.
(§4) 2 weeks after sowing, the test plants were treated at the 2- to 3-leaf stage: the compounds of the present disclosure for testing were dissolved in acetone separately, and added with Tween 80, an emulsifiable oil of 1.5 liters/ha methyl oleate was added as a synergist, and an obtained mixture was diluted with certain water to a certain concentration solution. The solution was sprayed onto the plants using a spray tower. After spraying, the weeds were cultivated in the greenhouse for 3 weeks, and the experimental effects on the weeds were counted. The effective concentrations of the compounds were 10 g/mu, 5 g/mu, and 2.5 g/mu, the experiment was repeated three times, and an average result was taken.
(§5) The activity level criteria for plant destruction (i.e. growth control rate) are as follows: • Grade 5: the growth control rate is greater than or equal to 85%; • Grade 4: the growth control rate is greater than or equal to 60% and less than 85%; • Grade 3: the growth control rate is greater than or equal to 40% and less than 60%; • Grade 2: the growth control rate is greater than or equal to 20% and less than 40%; • Grade 1: the growth control rate is greater than or equal to 5% and less than 20%; and • Grade 0: the growth control rate is less than 5%.
(§6) The growth control rate is a fresh weight control rate.

Amaranthus retroflexus = test system: Amaranthus retroflexus
Experimental: as §1, §2, §3, §4, §5, §6

Echinochloa crusgalli = test system: Echinochloa crusgalli
Experimental: as §1, §2, §3, §4, §5, §6

Portulaca oleracea = test system: Portulaca oleracea
Experimental: as §1, §2, §3, §4, §5, §6

Setaria viridis = test system: Setaria viridis
Experimental: as §1, §2, §3, §4, §5, §6

Trifoliumre pensL. = test system: Trifoliumre pensL.
Experimental: (1) Post-Emergence Stem and Leaf Spray Treatment: The weeds were cultivated in a 180 mm×140 mm plastic nutrient pot by a pot-culture method, placed in an enamel tray, and the plastic nutrient pots were filled with surface soil (⅘ of a depth) collected from a farmland and air-dried and sieved, and a soil humidity was controlled at 20% in the initial stage. Weed seeds with plump and uniform grains were selected, soaked in warm water at 25° C. for 6 h, and germinated in a biochemical incubator (dark) at 28° C. The freshly exposed weed seeds were evenly placed on the soil surface, and then covered with 0.5 cm to 1 cm of soil according to the size of the seeds. The weeds are cultivated in a controlled sunlight greenhouse at 20° C. to 30° C., under natural light, and a relative humidity of 57% to 72%. The soil was loam, including 1.63% of organic matters, with a pH value of 7, 84.3 mg/kg of alkaline nitrogen, 38.5 mg/kg of available phosphorus, and 82.1 mg/kg of available potassium. Each treatment was repeated 2 times, each treatment included 12 pots, and 20 weed seeds were sown in each pot. Pesticide was applied in the test for 1 time in total. When the weeds grew to 1.5- to 2-leaf stage, thinning was conducted, with 10 weeds in each pot, and 30 weeds were kept in each treatment. The cultivated weeds were placed on trays with an area of 0.1 m^2, and stems and leaves were sprayed with a sprayer. After applying a pesticide, the pesticide applied weeds were moved into a greenhouse for routine cultivation. 2 weeks after sowing, the test plants were treated at the 2- to 3-leaf stage: the compounds of the present disclosure for testing were dissolved in acetone separately, and added with Tween 80, an emulsifiable oil of 1.5 liters/ha methyl oleate was added as a synergist, and an obtained mixture was diluted with certain water to a certain concentration solution. The solution was sprayed onto the plants using a spray tower. After spraying, the weeds were cultivated in the greenhouse for 3 weeks, and the experimental effects on the weeds were counted. The effective concentrations of the compounds were 10 g/mu, 5 g/mu, and 2.5 g/mu, the experiment was repeated three times, and an average result was taken.

Molecule	Post-emergence herbicidal activity, A. theophrasti (grade) (Abutilon theophrasti; dosage 2.5 g/mu)	Post-emergence herbicidal activity, A. theophrasti (grade) (Abutilon theophrasti; dosage 5 g/mu)	Post-emergence herbicidal activity, A. theophrasti (grade) (Abutilon theophrasti; dosage 10 g/mu)	Post-emergence herbicidal activity, A. retroflexus (grade) (Amaranthus retroflexus; dosage 2.5 g/mu)	Post-emergence herbicidal activity, A. retroflexus (grade) (Amaranthus retroflexus; dosage 5 g/mu)	Post-emergence herbicidal activity, A. retroflexus (grade) (Amaranthus retroflexus; dosage 10 g/mu)	Post-emergence herbicidal activity, E. crusgalli (grade) (Echinochloa crusgalli; dosage 2.5 g/mu)	Post-emergence herbicidal activity, E. crusgalli (grade) (Echinochloa crusgalli; dosage 5 g/mu)	Post-emergence herbicidal activity, E. crusgalli (grade) (Echinochloa crusgalli; dosage 10 g/mu)	Post-emergence herbicidal activity, P. oleracea (grade) (Portulaca oleracea; dosage 2.5 g/mu)	Post-emergence herbicidal activity, P. oleracea (grade) (Portulaca oleracea; dosage 5 g/mu)	Post-emergence herbicidal activity, P. oleracea (grade) (Portulaca oleracea; dosage 10 g/mu)	Post-emergence herbicidal activity, S. viridis (grade) (Setaria viridis; dosage 2.5 g/mu)	Post-emergence herbicidal activity, S. viridis (grade) (Setaria viridis; dosage 5 g/mu)	Post-emergence herbicidal activity, S. viridis (grade) (Setaria viridis; dosage 10 g/mu)	Post-emergence herbicidal activity, Trifoliumre pensL. (grade) (Trifoliumre pensL.; dosage 2.5 g/mu)	Post-emergence herbicidal activity, Trifoliumre pensL. (grade) (Trifoliumre pensL.; dosage 5 g/mu)	Post-emergence herbicidal activity, Trifoliumre pensL. (grade) (Trifoliumre pensL.; dosage 10 g/mu)
2-(4-chloro-2-fluoro-5-(2-oxo-2-(4-methyl)ethoxy)phenyl)-4,5,6,7-tetrahydro-1H-isoindole-1,3(2H)-dione [Compound C2]	5 (Grade 5: the growth control rate is greater than or equal to 85%)	5 (Grade 5: the growth control rate is greater than or equal to 85%)	5 (Grade 5: the growth control rate is greater than or equal to 85%)	5 (Grade 5: the growth control rate is greater than or equal to 85%)	5 (Grade 5: the growth control rate is greater than or equal to 85%)	5 (Grade 5: the growth control rate is greater than or equal to 85%)	1 (Grade 1: the growth control rate is greater than or equal to 5% and less than 20%)	2 (Grade 2: the growth control rate is greater than or equal to 20% and less than 40%)	3 (Grade 3: the growth control rate is greater than or equal to 40% and less than 60%)	5 (Grade 5: the growth control rate is greater than or equal to 85%)	5 (Grade 5: the growth control rate is greater than or equal to 85%)	5 (Grade 5: the growth control rate is greater than or equal to 85%)	2 (Grade 2: the growth control rate is greater than or equal to 20% and less than 40%)	3 (Grade 3: the growth control rate is greater than or equal to 40% and less than 60%)	4 (Grade 4: the growth control rate is greater than or equal to 60% and less than 85%)	5 (Grade 5: the growth control rate is greater than or equal to 85%)	5 (Grade 5: the growth control rate is greater than or equal to 85%)	5 (Grade 5: the growth control rate is greater than or equal to 85%)
O=C1C2=C(CCCC2)C(=O)N1c1cc(OCc2nc(-c3cccc(Cl)c3)no2)c(Cl)cc1F [Compound A3]	5 (Grade 5: the growth control rate is greater than or equal to 85%)	5 (Grade 5: the growth control rate is greater than or equal to 85%)	5 (Grade 5: the growth control rate is greater than or equal to 85%)	5 (Grade 5: the growth control rate is greater than or equal to 85%)	5 (Grade 5: the growth control rate is greater than or equal to 85%)	5 (Grade 5: the growth control rate is greater than or equal to 85%)	1 (Grade 1: the growth control rate is greater than or equal to 5% and less than 20%)	2 (Grade 2: the growth control rate is greater than or equal to 20% and less than 40%)	3 (Grade 3: the growth control rate is greater than or equal to 40% and less than 60%)	4 (Grade 4: the growth control rate is greater than or equal to 60% and less than 85%)	5 (Grade 5: the growth control rate is greater than or equal to 85%)	5 (Grade 5: the growth control rate is greater than or equal to 85%)	2 (Grade 2: the growth control rate is greater than or equal to 20% and less than 40%)	3 (Grade 3: the growth control rate is greater than or equal to 40% and less than 60%)	4 (Grade 4: the growth control rate is greater than or equal to 60% and less than 85%)	4 (Grade 4: the growth control rate is greater than or equal to 60% and less than 85%)	5 (Grade 5: the growth control rate is greater than or equal to 85%)	5 (Grade 5: the growth control rate is greater than or equal to 85%)
O=C1C2=C(CCCC2)C(=O)N1c1cc(OCc2nc(-c3ccccc3Br)no2)c(Cl)cc1F [Compound A4]	5 (Grade 5: the growth control rate is greater than or equal to 85%)	5 (Grade 5: the growth control rate is greater than or equal to 85%)	5 (Grade 5: the growth control rate is greater than or equal to 85%)	5 (Grade 5: the growth control rate is greater than or equal to 85%)	5 (Grade 5: the growth control rate is greater than or equal to 85%)	5 (Grade 5: the growth control rate is greater than or equal to 85%)	1 (Grade 1: the growth control rate is greater than or equal to 5% and less than 20%)	2 (Grade 2: the growth control rate is greater than or equal to 20% and less than 40%)	3 (Grade 3: the growth control rate is greater than or equal to 40% and less than 60%)	4 (Grade 4: the growth control rate is greater than or equal to 60% and less than 85%)	5 (Grade 5: the growth control rate is greater than or equal to 85%)	5 (Grade 5: the growth control rate is greater than or equal to 85%)	2 (Grade 2: the growth control rate is greater than or equal to 20% and less than 40%)	3 (Grade 3: the growth control rate is greater than or equal to 40% and less than 60%)	4 (Grade 4: the growth control rate is greater than or equal to 60% and less than 85%)	4 (Grade 4: the growth control rate is greater than or equal to 60% and less than 85%)	5 (Grade 5: the growth control rate is greater than or equal to 85%)	5 (Grade 5: the growth control rate is greater than or equal to 85%)
